These results are taken from US20210087548A1, “Compositions and Methods for Inducing Protein Function” (priority 2017, published 2021).

Molecules are shown by their SMILES.

One test relates to human VEGFA locus. The format is cell-based. To be noted: for VEGF concentration, empty vector control cells in respective drug (average): HEK293A, 48 hrs, average of 3 independent experiments.
Test [1] relates to HCV genotype 1a NS3 S122G. To be noted: in vitro replication assay; cited from earlier work.
The subject of a further test is HCV genotype 1a NS3 F43L. The note with it: in vitro replication assay; cited from earlier work.
A further test concerns HCV genotype 1a NS3 V36M. The note with it: in vitro replication assay; cited from earlier work.
Another test relates to HCV genotype 1a NS3 T54A. To be noted: in vitro replication assay; cited from earlier work.
Test [2] relates to HCV genotype 1a NS3 D168Y. The note with it: in vitro replication assay; cited from earlier work.
A further test has as its system HCV genotype 1a NS3 Q80K. The note with it: in vitro replication assay; cited from earlier work.
The subject of a further test is HCV genotype 1a NS3 Wt. The note with it: in vitro replication assay; cited from earlier work.
The subject of test [3] is HCV genotype 1a NS3 S122R. The note with it: in vitro replication assay; cited from earlier work.

`CCC[C@H](NC(=O)[C@@H]1[C@H]2CCC[C@H]2CN1C(=O)[C@@H](NC(=O)[C@@H](NC(=O)c1cnccn1)C1CCCCC1)C(C)(C)C)C(=O)C(=O)NC1CC1` [TPV, telaprevir]: the “VEGF concentration, empty vector control cells in respective drug (average)” value in the test with human VEGFA locus amounted to 930 pg/mL.

The term EC50 denotes the concentration needed to bring the measured effect to its halfway point. For `C=C[C@@H]1C[C@]1(NC(=O)[C@@H]1C[C@@H](Oc2ncc(OC)c3ccc(Cl)cc23)CN1C(=O)[C@@H](NC(=O)OC(C)(C)C)C(C)(C)C)C(=O)NS(=O)(=O)C1CC1` [ASV, asunaprevir], in the test on human VEGFA locus (HEK293A co-transfected with ZF-StaPL(ti)-tdRFP-KRAB and ZF-StaPL(ai)-YFP-VPR), the “VEGF amounts in the culture medium” value is reported as “increased”. In addition, the “VEGF concentration, empty vector control cells in respective drug (average)” value in the test on human VEGFA locus was 673 pg/mL. The EC50 in test [1] was 0.65 nM; in the test with HCV genotype 1a NS3 F43L, 2.7 nM; in the test with HCV genotype 1a NS3 V36M it was 1.5 nM; in the test on HCV genotype 1a NS3 T54A, 0.33 nM; in test [2], 473 nM; in the test with HCV genotype 1a NS3 Q80K, 2.5 nM. In addition, the results for the EC50 (in the test on HCV genotype 1a NS3 Wt; in [3]) were 0.76 nM and 2.6 nM, respectively.
